According to patent publication US4552882A, “7-(1-Pyrrolyl) derivatives of 1-ethyl-1,4-dihydro-4-oxoquinoline-3-carboxylic acids and 1-ethyl-1,4-dihydro-4-oxo-1,8-naphthyridine-3-carboxylic acids and their use as antimicrobial agents” (Provesan, SA, priority 1983, dated 1985):
≈ marks a conversion by molar mass, not a printed value.

Assays:
Assay in all cases: MIC in vitro
[1] = test system: Serratia marcescens ATCC 13880; type: cell-based; settings: ATCC13880, Dextrose agar, 37° C., 20 hours
Procedure: (§1) (G. L. Daquet and Y. A. Chabbect, Techniques en bacteriologie (Bacteriological techniques), vol. 3, Flammarion Medecine Sciences, Paris, 1972 and W. B. Hugo and A. D. Rusell, Pharmaceutical Microbiology, Blackwell Scientific Publications, London, (1977)). Antibiotic medium no. 1 (seed agar) (Oxoid CM 327) Tryptone-soya broth (Oxoid CM 129) Ringer's physiological solution 1/4 (oxoid BR 52) Dextrose agar (BBL-11165) 0.1 N NaOH "Serratia marcescens" ATCC 13880 Each of the microorganisms is seeded by streaking in tubes of Antibiotic medium No. 1 (seed agar), which are then incubated at 37° C. for 20 hours. Using a culture loop, the cultures are then seeded in tryptone-soyabroth and incubated at 37° C. for 20 hours. The culture obtained is diluted to 1/4 with Ringer's physiological solution, so as to obtain a standardized suspension of 10^7 -10^9 cfu/ml for each organism. Starting from a solution of 1,000 μg/ml in 0.1 N NaOH, each product is diluted in Dextrose agar (previously melted and maintained at 50° C.), with successive dilutions so as to obtain the following concentrations: 64--32--16--8--4--2--1--0.5--0.25--0.125 μg of derivative/ml medium. For each product, the solution of each concentration is subsequently distributed into Petri dishes 10 cm in diameter, with 10 ml of medium per dish and the same number of dishes as microorganisms to be tested. As soon as the medium has cooled, the dishes are seeded with the inoculations using 0.4 ml of inoculation per dish. They are spread with a Driglasky loop and the supernatant is removed. The seeded dishes are incubated at 37° C. for 20 hours.

[2] = test system: Salmonella typhimurius AMES 100; type: cell-based, Salmonella typhimurium; settings: AMES100, Dextrose agar, 37° C., 20 hours
Procedure: (G. L. Daquet and Y. A. Chabbect, Techniques en bacteriologie (Bacteriological techniques), vol. 3, Flammarion Medecine Sciences, Paris, 1972 and W. B. Hugo and A. D. Rusell, Pharmaceutical Microbiology, Blackwell Scientific Publications, London, (1977)).
Antibiotic medium no. 1 (seed agar) (Oxoid CM 327)
Tryptone-soya broth (Oxoid CM 129)
Ringer's physiological solution 1/4 (oxoid BR 52) Dextrose agar (BBL-11165) 0.1 N NaOH
"Salmonella typhimurium" AMES 100
Each of the microorganisms is seeded by streaking in tubes of Antibiotic medium No. 1 (seed agar), which are then incubated at 37° C. for 20 hours. Using a culture loop, the cultures are then seeded in tryptone-soyabroth and incubated at 37° C. for 20 hours. The culture obtained is diluted to 1/4 with Ringer's physiological solution, so as to obtain a standardized suspension of 10^7 -10^9 cfu/ml for each organism.
Starting from a solution of 1,000 μg/ml in 0.1 N NaOH, each product is diluted in Dextrose agar (previously melted and maintained at 50° C.), with successive dilutions so as to obtain the following concentrations: 64--32--16--8--4--2--1--0.5--0.25--0.125 μg of derivative/ml medium.
For each product, the solution of each concentration is subsequently distributed into Petri dishes 10 cm in diameter, with 10 ml of medium per dish and the same number of dishes as microorganisms to be tested.
As soon as the medium has cooled, the dishes are seeded with the inoculations using 0.4 ml of inoculation per dish. They are spread with a Driglasky loop and the supernatant is removed. The seeded dishes are incubated at 37° C. for 20 hours.

[3] = test system: Proteus mirabilis ATCC 4675; type: cell-based; settings: ATCC4675, Dextrose agar, 37° C., 20 hours
Procedure: as §1, with “"Proteus mirabilis"” for “"Serratia marcescens"”, “4675” for “13880”

Row | Structure (SMILES) | MIC [1] [µg/mL] | MIC [2] [µg/mL] | MIC [3] [µg/mL]
1 | CCn1cc(C(=O)O)c(=O)c2ccc(-n3cccc3)cc21 [Example 1, 7-(1-pyrrolyl)-1-ethyl-1,4-dihydro-4-oxo-3-quinolinecarboxylic acid] | 8 (≈ 28.3 µM) | 4 (≈ 14.2 µM) | 16 (≈ 56.7 µM)
2 | CCn1cc(C(=O)O)c(=O)c2cc(F)c(-n3cccc3)cc21 [Example 2, 6-fluoro-7-(1-pyrrolyl)-1-ethyl-1,4-dihydro-4-oxo-3-quinolinecarboxylic acid] | 2 (≈ 6.66 µM) | 0.5 (≈ 1.67 µM) | 4 (≈ 13.3 µM)
3 | CCn1cc(C(=O)O)c(=O)c2ccc(-n3cccc3)nc21 [Example 3, 1-ethyl-1,4-dihydro-4-oxo-7-(1-pyrrolyl)-1,8-naphthyridine-3-carboxylic acid] | 16 (≈ 56.5 µM) | 8 (≈ 28.2 µM) | > 64
4 | CCn1cc(C(=O)O)c(=O)c2cc(F)c(-n3cccc3)nc21 [Example 4, 1-ethyl-1,4-dihydro-4-oxo-6-fluoro-7-(1-pyrrolyl)-1,8-naphthyridine-3-carboxylic acid] | 2 (≈ 6.64 µM) | 0.5 (≈ 1.66 µM) | 8 (≈ 26.6 µM)
5 | CCn1cc(C(=O)O)c(=O)c2cnc(N3CCNCC3)nc21 [Pipemidic acid, reference compound] | 16 (≈ 52.7 µM) | 8 (≈ 26.4 µM) | 16 (≈ 52.7 µM)
